Assay results: paper PMC3277640 (Proteins, 2011)
Read-outs that look alike come from different tables or passages of the source. Ends that are not written are not given here.

T1: KAP25 alkaline phosphatase signal peptide signal peptide (Escherichia coli, UniProt P00634 = phosphatase)
T1 chain: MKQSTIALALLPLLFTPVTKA

B1: Signal peptidase I cytoplasmic domain (protein)
chain: IVRSFIYEPFQIPSGSMMPTLLIGDFILVEKFAYGIKDPIYQKTLIETGHPKRGDIVVFKYPEDPKLDYIKRAVGLPGDKVTYDPVSKELTIQPGCSSGQACENALPVTYSNVEPSDFVQTFSRRNGGEATSGFFEVPKNETKENGIRLSERKETLGDVTHRILTVPIAQDQVGMYYQQPGQQLATWIVPPGQYFMMGDNRDNSADSRYWGFVPEANLVGRATAIWMSFDKQEGEWPTGLRLSRIGGIH

How the values were obtained:
[1] = target: SPase I Δ2-75 (Escherichia coli, UniProt P00803); conditions: data not shown
[2] = target: T1, KAP25 alkaline phosphatase signal …; assay: fluorescence

Row | Molecule | cleavage of KAP25 signal peptide ([1]; 24 hours of incubation with the enzyme) | cleavage of KAP25 signal peptide ([1]; 36 hours of incubation with the enzyme) [%] | cleavage of KAP25 signal peptide ([1]; 48 hours of incubation with the enzyme) [%] | Kd [2] [nM]
1 | KKKMKQSTIALALLPLLFTPVTKARTPEKKK-NH2 [KAP25] | about 7% | ~19 | ~27 | –
2 | B1 | – | – | – | 250
